US9511064B2, “Combination therapy for the treatment of cancer and immunosuppression” (Basilea Pharmaceutica AG, priority 2012, dated 2016)

Key:
Format in all cases: cell-based
[1] = test system: mouse mast cell line 6.5; assay: AlamarBlue conversion cell proliferation assay, 6.5 cell line; settings: combined with 4 mM metformin, 3 days incubation, read-out: concentration that inhibits the proliferation of cells by approximately 50% when combined with 4 mM metformin, 6.5 cell line
Procedure: (§1) The in vitro anti-proliferative activity of compounds of formula (I), metformin and combinations thereof is tested in an AlamarBlue conversion cell proliferation assay (Promega) on HL60 tumor cells and the mouse mast cell line 6.5 (Colombi et al., Oncogene 2011, 30:1551-65). Cells are seeded into 96-well microtiter plates (seeding cell density is 7,000 cells per well in 150 uL Iscove's medium) and test compounds are added (compounds of formula (I) are added from a 10 mM stock solution in DMSO, metformin from a freshly prepared 1 M solution in culture medium). Plates are incubated for 3 days at 37°, 5% CO2 and proliferation is determined by AlamarBlue staining (0.1 vol % added to cultures and incubated for further 4-5 hours). The conversion of AlamarBlue is proportional to live cell number and is read with a fluorescence plate reader (Ex/Em 535/595 nm). Growth is normalized to the untreated controls.

[2] = test system: HL60 tumor cells; assay: AlamarBlue conversion cell proliferation assay, HL60 cell line; settings: combined with 4 mM metformin, 3 days incubation, read-out: concentration that inhibits the proliferation of cells by approximately 50% when combined with 4 mM metformin, HL60 cell line
Procedure: as §1

[3] = test system: HL60 tumor cells and the mouse mast cell line 6.5; assay: AlamarBlue conversion cell proliferation assay, general statements without cell line; settings: metformin alone at 4 mM

| IC50 [2] | Structure (SMILES) | IC50 [1] | anti-proliferative activity on its own [3] |
| --- | --- | --- | --- |
| 5 µM | COC(=O)[C@H]1[C@H]2C[C@@H]3c4[nH]c5cc(OC)ccc5c4CCN3C[C@H]2C[C@@H](OC(=O)c2cc(OC)c(OC(=O)OCc3cccc4ccccc34)c(OC)c2)[C@@H]1OC [Example 34] | 7.5 µM |  |
| 2 µM | COC(=O)[C@H]1[C@H]2C[C@@H]3c4[nH]c5cc(OC)ccc5c4CCN3C[C@H]2C[C@@H](OC(=O)c2cc(OC)c(OC(=O)OCc3cccc(Cl)c3)c(OC)c2)[C@@H]1OC [Example 35] | 2 µM |  |
| 3 µM | COC(=O)[C@H]1[C@H]2C[C@@H]3c4[nH]c5cc(OC)ccc5c4CCN3C[C@H]2C[C@@H](OC(=O)c2cc(OC)c(OC(=O)OCc3ccc(F)cc3)c(OC)c2)[C@@H]1OC [Example 36] | 2.5 µM |  |
| 4 µM | COC(=O)[C@H]1[C@H]2C[C@@H]3c4[nH]c5cc(OC)ccc5c4CCN3C[C@H]2C[C@@H](OC(=O)c2cc(OC)c(OC(=O)OCc3ccc(C(F)(F)F)cc3)c(OC)c2)[C@@H]1OC [Example 38] | 4 µM |  |
|  | CN(C)C(=N)NC(=N)N [Metformin, 3-(diaminomethylidene)-1,1-dimethylguanidine] |  | do not show significant anti-proliferative activity |
